Results reported in patent publication US9676818B2, “Toll-like receptor 2-agonistic lipopeptides, and method of making the same” (University of Kansas, priority 2013, dated 2017).
Like-named read-outs stand apart in the source and are kept apart here.

Target: human TLR2 (Homo sapiens (Human), UniProt O60603)
Test: human TLR2-specific NF-κB reporter gene assay (HEK-Blue cells)
Type: cell-based
Conditions: for absolute magnitude of TLR2-induced NF-κB activation: hTLR2, FIG. 1
Description: The induction of NF-κB in a TLR2-specific reporter gene assay was quantified using HEK-BLUE™ cells as previously described (Wu, W. et al., J. Med. Chem. 2010, 53, 3198-3213). HEK293 cells stably transfected with either human TLR2 or murine TLR2 and alkaline phosphatase (sAP) were obtained from InvivoGen (San Diego, Calif.), and were maintained in HEK-BLUE™ Selection medium containing zeocin and normocin. Stable expression of secreted alkaline phosphatase (sAP) under control of NF-κB promoters is inducible by TLR2 agonists, and extracellular sAP in the supernatant is proportional to NF-κB induction. HEK-Blue cells were incubated at a density of ˜10^5 cells/mL in a volume of 80 μL/well, in 384-well, flat-bottomed, cell culture-treated microtiter plates until confluency was achieved, and then stimulated with serially-diluted aliquots of compounds for 12 h. sAP was assayed spectrophoto-metrically using an alkaline phosphatase-specific chromogen (present in the HEK-detection medium as supplied by the vendor) at 620 nm. For antagonism assays, HEK-Blue cells were incubated at a density of ˜10^5 cells/mL in a volume of 80 μL/well and stimulated with either PAM2CS (1 μg/mL) or lipoteichoic acid (1 μg/mL) in the presence of graded concentrations of the test compounds as described for TLR7 previously (Shukla, N. M.; et al., Bioorg. Med. Chem. Lett. 2009, 19, 2211-2214; Shukla, N. M. et al., Bioorg. Med. Chem. 2011, 19, 3801-3811).

[1] = human TLR2-specific reporter gene assay, ND = no activity detected at 10 μM, read-out: TLR2-Agonistic Activity (EC50 in nM)

human TLR2, sequence (O60603 21-784): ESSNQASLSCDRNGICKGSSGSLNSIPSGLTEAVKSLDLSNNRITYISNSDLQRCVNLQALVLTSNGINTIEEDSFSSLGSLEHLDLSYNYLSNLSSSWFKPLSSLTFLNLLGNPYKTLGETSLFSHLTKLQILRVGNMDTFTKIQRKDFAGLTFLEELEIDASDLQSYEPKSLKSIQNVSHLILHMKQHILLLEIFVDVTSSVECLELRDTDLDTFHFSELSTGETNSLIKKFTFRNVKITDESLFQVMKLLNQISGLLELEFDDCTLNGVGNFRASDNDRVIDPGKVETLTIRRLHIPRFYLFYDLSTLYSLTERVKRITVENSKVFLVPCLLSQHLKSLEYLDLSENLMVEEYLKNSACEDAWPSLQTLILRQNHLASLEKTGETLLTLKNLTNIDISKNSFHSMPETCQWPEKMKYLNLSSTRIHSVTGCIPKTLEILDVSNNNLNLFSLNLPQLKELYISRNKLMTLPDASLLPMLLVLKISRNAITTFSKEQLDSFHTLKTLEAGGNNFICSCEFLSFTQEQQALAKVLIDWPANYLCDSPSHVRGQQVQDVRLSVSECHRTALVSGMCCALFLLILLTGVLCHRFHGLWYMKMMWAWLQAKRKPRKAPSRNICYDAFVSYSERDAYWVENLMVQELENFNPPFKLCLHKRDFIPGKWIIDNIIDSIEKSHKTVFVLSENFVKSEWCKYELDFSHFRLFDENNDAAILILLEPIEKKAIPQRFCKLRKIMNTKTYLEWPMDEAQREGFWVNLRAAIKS

In the case of CCCC(=O)OCCSC[C@H](N)C(=O)N[C@@H](CO)C(=O)OC [Compound 6a, 2-(((R)-2-Amino-3-(((S)-3-Hydroxy-1-Methoxy-1-oxopropan-2-yl)amino)-3-oxopropyl)thio)ethyl butyrate], the EC50 [1] is reported as > 10000 nM.
With CCCCCCCC(=O)OCCSC[C@H](N)C(=O)N[C@@H](CO)C(=O)OC [Compound 6b, 2-(((R)-2-amino-3-(((S)-3-hydroxy-1-methoxy-1-oxopropan-2-yl)amino)-3-oxopropyl)thio)ethyl octanoate] the EC50 [1] was > 10000 nM.
With CCCCCCCCCCCC(=O)OCCSC[C@H](N)C(=O)N[C@@H](CO)C(=O)OC [Compound 6c, 2-(((R)-2-amino-3-(((S)-3-hydroxy-1-methoxy-1-oxopropan-2-yl)amino)-3-oxopropyl)thio)ethyl dodecanoate] the EC50 [1] was > 10000 nM.
For COC(=O)[C@H](CO)NC(=O)[C@@H](N)CSCCOC(=O)c1ccc(-c2ccccc2)cc1 [Compound 6f, 2-(((R)-2-amino-3-(((S)-3-hydroxy-1-methoxy-1-oxopropan-2-yl)amino)-3-oxopropyl)thio)ethyl[1,1′-biphenyl]-4-carboxylate], the “hTLR2-agonistic activity in words” value (hTLR2 reporter gene assay) was “complete absence of activity” and the EC50 [1] was > 10000 nM.
In the case of COC(=O)[C@H](CO)NC(=O)[C@@H](N)CSCCOC(=O)c1cccc(-c2ccccc2)c1 [Compound 6g, 2-(((R)-2-amino-3-(((S)-3-hydroxy-1-methoxy-1-oxopropan-2-yl)amino)-3-oxopropyl)thio)ethyl[1,1′-biphenyl]-3-carboxylate], the “hTLR2-agonistic activity in words” value (hTLR2 reporter gene assay) is reported as “complete absence of activity” and the EC50 [1] is reported as > 10000 nM.
For COC(=O)[C@H](CO)NC(=O)[C@@H](N)CSCCOC(=O)c1ccc(-c2ccc(-c3ccccc3)cc2)cc1 [Compound 6h], the “hTLR2-agonistic activity in words” value (hTLR2 reporter gene assay) was “complete absence of activity”.
For CCCCCCCCCCCCCCN(CCCCCCCCCCCCCC)CC(=O)OCCSC[C@H](N)C(=O)N[C@@H](CO)C(=O)OC [Compound 10a, (S)-methyl 2-((R)-2-amino-3-((2-(2-(ditetradecylamino)acetoxy)ethyl)thio)propan-amido)-3-hydroxypropanoate], the “hTLR2-agonistic activity in words” value (hTLR2 reporter gene assay) was “completely inactive” and the EC50 [1] was > 10000 nM.
CCCCCCCCCCCCCCNCC(=O)OCCSC[C@H](N)C(=O)N[C@@H](CO)C(=O)OC [Compound 10b, (S)-methyl 2-((R)-2-amino-3-((2-(2-(tetradecylamino)acetoxy)ethyl)thio)propanamido)-3-hydroxypropanoate] was tested, and the “hTLR2-agonistic activity in words” value (hTLR2 reporter gene assay) was “completely inactive” and the EC50 [1] was > 10000 nM.
In the case of CCCCCCCCCCCCCCCC(=O)OCCSC[C@H](NCC)C(=O)N[C@@H](CO)C(=O)OC [Compound 11a, 2-(((R)-2-(ethylamino)-3-(((S)-3-hydroxy-1-methoxy-1-oxopropan-2-yl)amino)-3-oxopropyl)thio)ethyl palmitate], the “hTLR2-agonistic activity in words” value (hTLR2 reporter gene assay) is reported as “inactive” and the EC50 [1] is reported as > 10000 nM.
With CCCCCCCCCCCCCCCC(=O)OCCSC[C@H](NCCCCCCCC)C(=O)N[C@@H](CO)C(=O)OC [Compound 11b, 2-(((R)-3-(((S)-3-hydroxy-1-methoxy-1-oxopropan-2-yl)amino)-2-(octylamino)-3-oxopropyl)thio)ethyl palmitate] the “hTLR2-agonistic activity in words” value (hTLR2 reporter gene assay) was “inactive” and the EC50 [1] was > 10000 nM.
CCCCCCCCCCCCCCCCN[C@@H](CSCCOC(=O)CCCCCCCCCCCCCCC)C(=O)N[C@@H](CO)C(=O)OC [Compound 11c, 2-(((R)-2-(hexadecylamino)-3-(((S)-3-hydroxy-1-methoxy-1-oxopropan-2-yl)amino)-3-oxopropyl)thio)ethyl palmitate] was tested, and the “hTLR2-agonistic activity in words” value (hTLR2 reporter gene assay) was “inactive” and the EC50 [1] was > 10000 nM.
In the case of CCCCCCCCCCCCCCCC(=O)OCCSC[C@H](NC(C)=O)C(=O)N[C@@H](CO)C(=O)OC [Compound 11d, 2-(((R)-2-acetamido-3-(((S)-3-hydroxy-1-methoxy-1-oxopropan-2-yl)amino)-3-oxopropyl)thio)ethyl palmitate], the “absolute magnitude of TLR2-induced NF-κB activation” value is reported as “far greater” and the EC50 [1] is reported as 1.01 nM.
In the case of CCCCCCCCCCCCCCCC(=O)OCCSC[C@H](NC(=O)CCC)C(=O)N[C@@H](CO)C(=O)OC [Compound 11e, 2-(((R)-2-butyramido-3-(((S)-3-hydroxy-1-methoxy-1-oxopropan-2-yl)amino)-3-oxopropyl)thio)ethyl palmitate], the EC50 [1] is reported as 1.64 nM.
CCCCCCCCCCCCCCCC(=O)OCCSC[C@H](NC(=O)CCCCCCC)C(=O)N[C@@H](CO)C(=O)OC [Compound 11f, 2-(((R)-3-(((S)-3-hydroxy-1-methoxy-1-oxopropan-2-yl)amino)-2-octanamido-3-oxopropyl)thio)ethyl palmitate] showed an EC50 [1] of 3.8 nM.
For CCCCCCCCCCCCCCCC(=O)N[C@@H](CSCCOC(=O)CCCCCCCCCCCCCCC)C(=O)N[C@@H](CO)C(=O)OC [Compound 11g, 2-(((R)-3-(((S)-3-hydroxy-1-methoxy-1-oxopropan-2-yl)amino)-3-oxo-2-palmitamidopropyl)thio)ethyl palmitate], the “hTLR2-agonistic activity in words” value (hTLR2 reporter gene assay) was “complete loss of activity” and the EC50 [1] was > 10000 nM.
For CCCCCCCCCCCCCCCC(=O)OCCSC[C@H](NC(=O)C(F)(F)F)C(=O)N[C@@H](CO)C(=O)OC [Compound 11h, 2-(((R)-3-(((S)-3-hydroxy-1-methoxy-1-oxopropan-2-yl)amino)-3-oxo-2-(2,2,2-trifluoro-acetamido)propyl)thio)ethyl palmitate], the “absolute magnitude of TLR2-induced NF-κB activation” value was “low magnitude” and the EC50 (hTLR2 reporter gene assay, read-out: EC50 in engaging hTLR2) was 4.5 nM.
For CCCCCCCCCCCCCCCC(=O)OCCSC[C@H](NC(=O)C(Cl)(Cl)Cl)C(=O)N[C@@H](CO)C(=O)OC [Compound 11i, 2-(((R)-3-(((S)-3-hydroxy-1-methoxy-1-oxopropan-2-yl)amino)-3-oxo-2-(2,2,2-trichloroacetamido)propyl)thio)ethyl palmitate], the “hTLR2-agonistic activity in words” value (hTLR2 reporter gene assay) was “inactive” and the EC50 [1] was > 10000 nM.
CCCCCCCCCCCCCCCC(=O)OCCSC[C@H](NS(C)(=O)=O)C(=O)N[C@@H](CO)C(=O)OC [Compound 11j, 2-(((R)-3-(((S)-3-hydroxy-1-methoxy-1-oxopropan-2-yl)amino)-2-(methylsulfonamido)-3-oxo-propyl)thio)ethyl palmitate] was tested, and the “hTLR2-agonistic activity in words” value (hTLR2 reporter gene assay) was “inactive” and the EC50 [1] was > 10000 nM.
CCCCCCCCCCCCCCCC(=O)OCCSC[C@H](NS(=O)(=O)C(F)(F)F)C(=O)N[C@@H](CO)C(=O)OC [Compound 11k, 2-(((R)-3-(((S)-3-hydroxy-1-methoxy-1-oxopropan-2-yl)amino)-3-oxo-2-(trifluoromethyl-sulfonamido)propyl)thio)ethyl palmitate] was tested, and the “hTLR2-agonistic activity in words” value (hTLR2 reporter gene assay) was “inactive” and the EC50 [1] was > 10000 nM.
In the case of CCCCCCCCCCCCCCCC(=O)OCCSC[C@H](NS(=O)(=O)c1ccc(C)cc1)C(=O)N[C@@H](CO)C(=O)OC [Compound 11l, 2-(((R)-3-(((S)-3-hydroxy-1-methoxy-1-oxopropan-2-yl)amino)-2-(4-methylphenylsulfonamido)-3-oxopropyl)thio)ethyl palmitate], the “hTLR2-agonistic activity in words” value (hTLR2 reporter gene assay) is reported as “inactive” and the EC50 [1] is reported as > 10000 nM.
CCCCCCCCCCCCCCCC(=O)OCCSC[C@H](N)C(=O)N[C@@H](COC(C)=O)C(=O)OC [Compound 14a, 2-(((R)-3-(((S)-3-acetoxy-1-methoxy-1-oxopropan-2-yl)amino)-2-amino-3-oxopropyl)thio)ethyl palmitate] was tested, and the “hTLR2-agonistic activity in words” value (hTLR2 reporter gene assay) was “virtually indistinguishable from that of 6d” and the EC50 [1] was 2.97 nM.
In the case of CCCCCCCCCCCCCCCC(=O)OCCSC[C@H](N)C(=O)N[C@@H](COC(=O)CCC)C(=O)OC [Compound 14b, 2-(((R)-2-amino-3-(((S)-3-(butyryloxy)-1-methoxy-1-oxopropan-2-yl)amino)-3-oxopropyl)thio)ethyl palmitate], the EC50 [1] is reported as 5.47 nM.
CCCCCCCCCCCCCCCC(=O)OCCSC[C@H](N)C(=O)N[C@@H](COC(=O)CCCCCCCCCCCCCCC)C(=O)OC [Compound 14c, 2-(((R)-2-amino-3-(((S)-1-methoxy-1-oxo-3-(palmitoyloxy)propan-2-yl)amino)-3-oxopropyl)thio)ethyl palmitate] showed an EC50 [1] of 5.95 nM.
With CCCCCCCCCCCCCCCC(=O)OCCCSC[C@H](N)C(=O)N[C@@H](CO)C(=O)OC [Compound 15, 3-((R)-2-amino-3-((S)-3-hydroxy-1-methoxy-1-oxopropan-2-ylamino)-3-oxopropylthio)propyl palmitate] the “hTLR2-agonistic activity in words” value (hTLR2 reporter gene assay) was “inactive” and the EC50 [1] was > 10000 nM.
In the case of CCCCCCCCCCCCCCCC(=O)OCCCSC[C@H](NC(C)=O)C(=O)N[C@@H](CO)C(=O)OC [Compound 16, 3-(((R)-2-acetamido-3-(((S)-3-hydroxy-1-methoxy-1-oxopropan-2-yl)amino)-3-oxopropyl)thio)propyl palmitate], the “hTLR2-agonistic activity in words” value (hTLR2 reporter gene assay) is reported as “active, albeit much weaker in potency than 11d” and the EC50 [1] is reported as 5.52 nM.
With CCCCCCCCCCCCCCCC(=O)OCCSC[C@H](NC(C)=O)C(=O)N[C@@H](COC(=O)c1cccnc1)C(=O)OC [Compound 28, (S)-2-((R)-2-Acetamido-3-((2-(palmitoyloxy)ethyl)thio)propanamido)-3-methoxy-3-oxopropyl nicotinate] the EC50 [1] was 1.27 nM.
